Measurements published in patent US4604239A, “Antibiotics” (Eli Lilly and Company, priority 1985, dated 1986).
Read-outs that look alike come from different tables or passages of the source.

Legend:
[1] = electrometric titration; type: physicochemical; conditions: electrometric titration in 66% dimethylformamide in water
Text: Antibiotic A41030 factor A is a white, crystalline solid.

[2] = test system: Streptococcus pneumoniae; test: agar-dilution MIC; type: cell-based; conditions: Streptococcus pneumoniae Park I; Table 17
Text: (§1) The agar-dilution procedure described by the International Collaborative study (ICS) group was used to determine the minimum inhibitory concentrations (MIC's).

[3] = test system: Bacteroides fragilis; test: agar-dilution MIC; type: cell-based; conditions: Table 14
Text: as §1

[4] = test system: Streptococcus sp. (Group D); test: agar-dilution MIC; type: cell-based; conditions: Table 17
Text: as §1

[5] = test system: Streptococcus pyogenes; test: agar-dilution MIC; type: cell-based; conditions: Streptococcus pyogenes C203; Table 17
Text: as §1

[6] = test system: Staphylococcus epidermidis; test: agar-dilution MIC; type: cell-based; conditions: Table 17
Text: as §1

[7] = test system: Clostridium septicum; test: agar-dilution MIC; type: cell-based; conditions: Clostridium septicum 1128; Table 14
[8] = test system: Peptococcus prevoti; test: agar-dilution MIC; type: cell-based; conditions: Peptococcus prevoti 1281; Table 14
[9] = test system: Bacteroides corrodens; test: agar-dilution MIC; type: cell-based; conditions: Bacteroides corrodens 1874; Table 14
[10] = test system: Clostridium perfringens; type: cell-based; conditions: Clostridium perfringens 81; Table 14
[11] = test system: Propionibacterium acnes; test: agar-dilution MIC; type: cell-based; conditions: Propionibacterium acnes 79; Table 14
Text: Antibiotic A41030 factors A, B and C have also been tested and found to be active against a genus of anaerobic bacteria identified as Propionibacterium acnes.

[12] = test system: Peptococcus asaccharolyticus; test: agar-dilution MIC; type: cell-based; conditions: Peptococcus asaccharolyticus 1302; Table 14
Experimental: The MIC values were determined by the agar-dilution method, and are recorded in Table 15, which follows.

[13] = solubility; type: physicochemical
[14] = test system: Bacteroides vulgatis; test: agar-dilution MIC; type: cell-based; conditions: Bacteroides vulgatis 1211; Table 14
[15] = test system: Bacteroides melaninogenicus; test: agar-dilution MIC; type: cell-based; conditions: Table 14
[16] = test system: Klebsiella pneumoniae; test: agar-dilution MIC; type: cell-based; conditions: Klebsiella pneumoniae X26; Table 17
Text: (§2) The results after reading the which follows.

[17] = test system: Hemophilus influenzae; test: agar-dilution MIC; type: cell-based; conditions: Table 17
[18] = test system: Peptostreptococcus anaerobius; test: agar-dilution MIC; type: cell-based; conditions: Peptostreptococcus anaerobius 1428; Table 14
[19] = test system: Fusobacterium necrophorum; test: agar-dilution MIC; type: cell-based; conditions: Fusobacterium necrophorum 6054A; Table 14
[20] = test system: Eubacterium aerofaciens; test: agar-dilution MIC; type: cell-based; conditions: Eubacterium aerofaciens 1235; Table 14
[21] = test system: Clostridium difficile; type: cell-based
[22] = test system: Fusobacterium symbiosum; test: agar-dilution MIC; type: cell-based; conditions: Fusobacterium symbiosum 1470; Table 14
[23] = test system: Bacteroides thetaiotaomicron; type: cell-based; conditions: Bacteroides thetaiotaomicron 1438; Table 14
Text: as §1

[24] = test system: Peptostreptococcus intermedius; test: agar-dilution MIC; type: cell-based; conditions: Peptostreptococcus intermedius 1264; Table 14
[25] = test system: Staphylococcus aureus; test: agar-dilution MIC; type: cell-based; conditions: Staphylococcus aureus S13E; Table 17
[26] = test system: Escherichia coli; test: agar-dilution MIC; type: cell-based; conditions: Escherichia coli TEM; Table 17
Text: as §2

[27] = Staphylococcus epidermidis EPI1
[28] = Staphylococcus epidermidis EPI2
[29] = Bacteroides melaninogenicus 2736
[30] = Clostridium difficile 78, Table 16
[31] = Clostridium difficile 107B, Table 16
[32] = Clostridium difficile 111F, Table 16
[33] = Clostridium difficile 1153, Table 16
[34] = Clostridium difficile 2634, Table 16
[35] = Clostridium difficile 3424-5B, Table 16
[36] = Clostridium difficile 3816, Table 16
[37] = Clostridium difficile 6890, Table 16
[38] = Clostridium difficile 8484, Table 16
[39] = Clostridium difficile A-194, Table 16
[40] = Clostridium difficile A-195, Table 16
[41] = Clostridium difficile A-196, Table 16
[42] = Clostridium difficile A-279, Table 16
[43] = Clostridium difficile A-281, Table 16
[44] = Clostridium difficile WAL-2112, Table 16
[45] = Clostridium difficile WAL-3657, Table 16
[46] = Clostridium difficile WAL-4268, Table 16

With A41030 factor G the “possibly additional pKa's” value [1] was over 10.5, the MIC [2] was 2 µg/mL and the MIC ([3]; Bacteroides fragilis 111) was 32 µg/mL. It also gave an MIC ([3]; Bacteroides fragilis 1877) of 32 µg/mL, an MIC ([3]; Bacteroides fragilis 1936B) of 64 µg/mL and an MIC ([4]; Streptococcus sp. Group D 9960) of 4 µg/mL. It also gave an MIC ([4]; Streptococcus sp. Group D X66) of 4 µg/mL, an MIC [5] of 2 µg/mL and an MIC [6, 27] of 0.5 µg/mL. It also gave an MIC [6, 28] of 0.5 µg/mL, an MIC [7] of 2 µg/mL and an MIC [8] of 2 µg/mL. It also gave an MIC [9] of 32 µg/mL, an MIC [10] of 2 µg/mL and an MIC [11] of 1.0 µg/mL. The MIC [12] was 1.0 µg/mL, the “solubility (solvents)” value [13] was “soluble in the same solvents as is factor A” and the MIC [14] was 64 µg/mL. For the same substance, the MIC [15, 29] was 64 µg/mL, the MIC [16] was 64 µg/mL and the MIC ([17]; Haemophilus influenzae 76) was 32 µg/mL. For the same substance, the MIC ([17]; Haemophilus influenzae C.L.) was 32 µg/mL, the MIC [18] was at most 0.5 µg/mL and the MIC [19] was 2 µg/mL. The MIC [20] was 2 µg/mL, the MIC [21, 30] was 1.0 µg/mL and the MIC [21, 31] was 1.0 µg/mL. The MIC [21, 32] was 1.0 µg/mL, the MIC [21, 33] was 1.0 µg/mL and the MIC [21, 34] was 1.0 µg/mL. The MIC ([21]; Clostridium difficile 2994, Table 14) was 2 µg/mL, the MIC [21, 35] was 1.0 µg/mL and the MIC [21, 36] was 1.0 µg/mL. For the same substance, the MIC ([21]; Clostridium difficile 3950D, Table 16) was 1.0 µg/mL, the MIC [21, 37] was 1.0 µg/mL and the MIC [21, 38] was 1.0 µg/mL. The MIC [21, 39] was 1.0 µg/mL, the MIC [21, 40] was 1.0 µg/mL and the MIC [21, 41] was 1.0 µg/mL. It also gave an MIC [21, 42] of 1.0 µg/mL, an MIC [21, 43] of 1.0 µg/mL and an MIC [21, 44] of 1.0 µg/mL. For the same substance, the MIC [21, 45] was 1.0 µg/mL, the MIC [21, 46] was 1.0 µg/mL and the MIC [22] was 2 µg/mL. It also gave an MIC [23] of 64 µg/mL and an MIC [24] of 2 µg/mL.

With A41030 factor D the “possibly additional pKa's” value [1] was over 10, the MIC [2] was 0.5 µg/mL and the MIC ([3]; Bacteroides fragilis 111) was 32 µg/mL. It also gave an MIC ([3]; Bacteroides fragilis 1877) of 32 µg/mL, an MIC ([3]; Bacteroides fragilis 1936B) of 32 µg/mL and an MIC ([4]; Streptococcus sp. Group D 9960) of 1 µg/mL. The MIC ([4]; Streptococcus sp. Group D X66) was 1 µg/mL, the MIC [5] was 0.5 µg/mL and the MIC [6, 27] was 0.25 µg/mL. It also gave an MIC [6, 28] of 1 µg/mL, an MIC [7] of 0.25 µg/mL and an MIC [8] of 0.25 µg/mL. For the same substance, the MIC [9] was 32 µg/mL, the MIC [10] was 0.5 µg/mL and the MIC [11] was 0.25 µg/mL. For the same substance, the MIC [25] was 0.25 µg/mL, the “solubility (solvents)” value [13] was “soluble in the same solvents as factor A” and the MIC [14] was 32 µg/mL. For the same substance, the MIC ([15]; Bacteroides melaninogenicus 1856/28) was over 64 µg/mL, the MIC [15, 29] was 0.5 µg/mL and the MIC [26] was 64 µg/mL. The MIC ([17]; Haemophilus influenzae 76) was 8 µg/mL, the MIC ([17]; Haemophilus influenzae C.L.) was 8 µg/mL and the MIC [18] was 0.5 µg/mL. The MIC [20] was 0.5 µg/mL, the MIC [21, 30] was at most 0.25 µg/mL and the MIC [21, 31] was at most 0.25 µg/mL. The MIC [21, 32] was at most 0.25 µg/mL, the MIC [21, 33] was 1.0 µg/mL and the MIC [21, 34] was 0.5 µg/mL. The MIC [21, 35] was 0.5 µg/mL, the MIC [21, 36] was 0.5 µg/mL and the MIC [21, 37] was 0.5 µg/mL. It also gave an MIC [21, 38] of at most 0.25 µg/mL, an MIC [21, 39] of at most 0.25 µg/mL and an MIC [21, 40] of at most 0.25 µg/mL. For the same substance, the MIC [21, 41] was 0.5 µg/mL, the MIC [21, 42] was at most 0.25 µg/mL and the MIC ([21]; Clostridium difficile A-280, Table 16) was at most 0.25 µg/mL. The MIC [21, 43] was 0.5 µg/mL, the MIC [21, 44] was at most 0.25 µg/mL and the MIC [21, 45] was at most 0.25 µg/mL. The MIC [21, 46] was at most 0.25 µg/mL, the MIC [22] was 0.5 µg/mL and the MIC [23] was 32 µg/mL. It also gave an MIC [24] of 1.0 µg/mL.
